Laboratory results published in PubChem BioAssay AID1918942 (Molecular Pharmacology Branch, DTP, NCI, 2023).

System: 743489-274-T-PDC complex spheroid viability
Assay: Anticancer human tumor 743489-274-T-PDC patient-derived renal cell carcinoma cell line growth inhibition
Settings: for IC50: curve of first compound; for viability, T/C: stronger effect = lower value
Outline: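 Multicellular complex spheroids of tumor cells with human endothelial cells (HUVEC) and mesenchymal stem cells; the LSD1 inhibitor iadademstat was combined with standard-of-care or investigational agents. Top concentration at or near clinical Cmax, half-log dilutions; final DMSO ≤0.25%.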

[1] = second compound 0.1 µM, first compound 0.0316 µM
[2] = second compound 0.1 µM, first compound 0.1 µM
[3] = second compound 0.1 µM, first compound 0.316 µM
[4] = second compound 0.1 µM, first compound 1 µM
[5] = second compound 0.1 µM, first compound 3.16 µM
[6] = second compound 0.1 µM, first compound 10 µM
[7] = second compound 0.316 µM, first compound 0.0316 µM
[8] = second compound 0.316 µM, first compound 0.1 µM
[9] = second compound 0.316 µM, first compound 0.316 µM
[10] = second compound 0.316 µM, first compound 1 µM
[11] = second compound 0.316 µM, first compound 3.16 µM
[12] = second compound 0.316 µM, first compound 10 µM
[13] = second compound 1 µM, first compound 0.0316 µM
[14] = second compound 1 µM, first compound 0.1 µM
[15] = second compound 1 µM, first compound 0.316 µM
[16] = second compound 1 µM, first compound 1 µM
[17] = second compound 1 µM, first compound 3.16 µM
[18] = second compound 1 µM, first compound 10 µM
[19] = second compound 3.16 µM, first compound 0.0316 µM
[20] = second compound 3.16 µM, first compound 0.1 µM
[21] = second compound 3.16 µM, first compound 0.316 µM
[22] = second compound 3.16 µM, first compound 1 µM
[23] = second compound 3.16 µM, first compound 3.16 µM
[24] = second compound 3.16 µM, first compound 10 µM
[25] = second compound 10 µM, first compound 0.0316 µM
[26] = second compound 10 µM, first compound 0.1 µM
[27] = second compound 10 µM, first compound 0.316 µM
[28] = second compound 10 µM, first compound 1 µM
[29] = second compound 10 µM, first compound 3.16 µM
[30] = second compound 10 µM, first compound 10 µM
[31] = second compound 0.1 µM, first compound 0.00316 µM
[32] = second compound 0.1 µM, first compound 0.01 µM
[33] = second compound 0.316 µM, first compound 0.00316 µM
[34] = second compound 0.316 µM, first compound 0.01 µM
[35] = second compound 1 µM, first compound 0.00316 µM
[36] = second compound 1 µM, first compound 0.01 µM
[37] = second compound 3.16 µM, first compound 0.00316 µM
[38] = second compound 3.16 µM, first compound 0.01 µM
[39] = second compound 10 µM, first compound 0.00316 µM
[40] = second compound 10 µM, first compound 0.01 µM
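Note: spheroids exposed to compounds for 7 days before readout.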
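Throughout, for viability, T/C: 100% = DMSO vehicle control wells.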

SMILES	IC50 (second compound 0.1 µM) [nM]	IC50 (second compound 0.316 µM) [nM]	IC50 (second compound 1 µM) [nM]	IC50 (second compound 3.16 µM) [nM]	IC50 (second compound 10 µM) [nM]	viability, T/C [1] [%]	viability, T/C [2] [%]	viability, T/C [3] [%]	viability, T/C [4] [%]	viability, T/C [7] [%]	viability, T/C [8] [%]	viability, T/C [9] [%]	viability, T/C [10] [%]	viability, T/C [13] [%]	viability, T/C [14] [%]	viability, T/C [15] [%]	viability, T/C [16] [%]	viability, T/C [19] [%]	viability, T/C [20] [%]	viability, T/C [21] [%]	further results
CC(C)c1c(-c2ccccc2)nc2c(C#N)c[nH]n2c1=O + NC1CC1c1ccc(-c2cccc(O)c2)cc1	> 10000	> 10000	> 10000	> 10000	> 10000	110	112	131	105	104	107	134	100	110	117	108	116	106	108	114	viability, T/C [5]: 113%; viability, T/C [6]: 109%; viability, T/C [11]: 115%; viability, T/C [12]: 102%; viability, T/C [17]: 108%; viability, T/C [18]: 114%; viability, T/C [22]: 111%; viability, T/C [23]: 105%; viability, T/C [24]: 124%; viability, T/C [25]: 130%; viability, T/C [26]: 105%; viability, T/C [27]: 116%; viability, T/C [28]: 102%; viability, T/C [29]: 106%; viability, T/C [30]: 109%
CC1COCCN1c1cc(-c2ccnn2C)c2ccnc(-c3ccn[nH]3)c2n1 (stereo not given) + NC1CC1c1ccc(-c2cccc(O)c2)cc1	448	> 1000	716	540	518	85.2	62.9	51.2	44.3	85.5	65.5	64.5	51.9	82.5	68.9	64.7	44.5	83.8	75.6	55.5	viability, T/C [31]: 109%; viability, T/C [32]: 88%; viability, T/C [33]: 111%; viability, T/C [34]: 104%; viability, T/C [35]: 98.2%; viability, T/C [36]: 103%; viability, T/C [37]: 101%; viability, T/C [38]: 90.6%; viability, T/C [22]: 41.5%; viability, T/C [39]: 90.8%; viability, T/C [40]: 98.1%; viability, T/C [25]: 80%; viability, T/C [26]: 75%; viability, T/C [27]: 53.7%; viability, T/C [28]: 43.6%
COc1ccc([C@@H](O)c2cc(-c3ncnc4cc(N5CCOCC5)ccc34)c(F)cc2Cl)nn1 + NC1CC1c1ccc(-c2cccc(O)c2)cc1	643	979	833	611	918	101	93.6	63	38.6	99.7	92.7	68.8	57.4	94.3	93	80.2	43.4	93.6	94.4	59.4	viability, T/C [5]: 31.9%; viability, T/C [6]: 15.4%; viability, T/C [11]: 24.1%; viability, T/C [12]: 32%; viability, T/C [17]: 25%; viability, T/C [18]: 16.8%; viability, T/C [22]: 41.2%; viability, T/C [23]: 27.5%; viability, T/C [24]: 17.4%; viability, T/C [25]: 99.1%; viability, T/C [26]: 111%; viability, T/C [27]: 74.3%; viability, T/C [28]: 49.5%; viability, T/C [29]: 27.1%; viability, T/C [30]: 16.6%
O=C(C=Cn1cnc(-c2cc(C(F)(F)F)cc(C(F)(F)F)c2)n1)NNc1cnccn1 + NC1CC1c1ccc(-c2cccc(O)c2)cc1	> 1000	> 1000	> 1000	> 1000	> 1000	113	85.8	97.9	86.2	108	99.6	76.4	74.6	118	88	89.4	67.4	119	91.3	74.6	viability, T/C [31]: 97.6%; viability, T/C [32]: 103%; viability, T/C [33]: 102%; viability, T/C [34]: 99.8%; viability, T/C [35]: 99.1%; viability, T/C [36]: 103%; viability, T/C [37]: 98.7%; viability, T/C [38]: 105%; viability, T/C [22]: 69.5%; viability, T/C [39]: 96.2%; viability, T/C [40]: 101%; viability, T/C [25]: 102%; viability, T/C [26]: 98.6%; viability, T/C [27]: 86.1%; viability, T/C [28]: 57.4%
Nc1ncn(C2CC(O)C(CO)O2)c(=O)n1 (stereo not given) + NC1CCC(NC2CC2c2ccccc2)CC1	> 1000	> 1000	> 1000	> 1000	> 1000	110	109	105	105	107	107	98	98.4	114	92	105	105	108	95.9	94	viability, T/C [31]: 107%; viability, T/C [32]: 113%; viability, T/C [33]: 122%; viability, T/C [34]: 119%; viability, T/C [35]: 107%; viability, T/C [36]: 113%; viability, T/C [37]: 127%; viability, T/C [38]: 122%; viability, T/C [22]: 97.8%; viability, T/C [39]: 104%; viability, T/C [40]: 122%; viability, T/C [25]: 131%; viability, T/C [26]: 97.2%; viability, T/C [27]: 103%; viability, T/C [28]: 97.3%
